Reference: EP0565593B1, “REDUCING PESTICIDAL INTERACTIONS IN CROPS” (priority 1990, dated 1992)
Values joined by “and” are separate entries in the source; they are usually repeats but may differ in a detail not shown here. Identical values can stand only once. Like-named read-outs stand apart in the source and are kept apart here.

Assays:
[1] = system: Corn
[2] = system: Corn; conditions: for antidote activity: COUNTER with BEACON, PURSUIT (POE) or XRD-498 (PPI), Tables 29-37; for relieving corn injury, comparison: Example 29, COUNTER/PURSUIT negative synergy
[3] = system: Corn; test: Greenhouse test Procedure VII: biocide and antidote in furrow, herbicide POE (Examples 39-42, 48-50, 56-58; Tables 38-41, 47-49, 55-57); type: in vivo
In short: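 Corn seed was planted in greenhouse pots, with COUNTER 15G insecticide plus antidote granules applied in-furrow (e.g. 1.1 + 0.37 mg a.i./cm, or 227 g/305 m with acetone-applied safeners). About five days later, herbicides in water with 0.25% v/v X-77 were track-sprayed post-emergence at 187 L/ha. Plant response was scored eight days afterward, with two to four replicates.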

[4] = malathion + Herbicides 1, 21, 18, Example 54
[5] = COUNTER 15G + BEACON/co-herbicide combinations, Example 56
[6] = in-furrow antidote, COUNTER 15G + sulfonamide herbicides, Table 41
[7] = DIAZINON + Herbicides 1, 21, 18, Example 53

With COC(=O)c1c(Cl)nn(C)c1S(=O)(=O)NC(=O)Nc1nc(OC)cc(OC)n1 [Herbicide No. 1, N-[(4,6-dimethoxypyrimidin-2-yl)aminocarbonyl]-3-chloro-4-methoxycarbonyl-5-sulfonamide, reference compound] the “% Inhibition Corn” value ([1]; Herb. […], PPI, 13 days after planting) was 70%, the “% Inhibition Corn” value ([1]; Herbicide No. 1 0.0175 Kg/Ha PPI alone, Table 19) was 5% and the “% Inhibition Corn” value ([1]; Herbicide No. 1 0.0175 Kg/Ha PPI alone, Table 20) was 0%. The “% Inhibition Corn” value ([1]; Herbicide No. 1 0.0175 Kg/Ha PPI alone, Table 21) was 0%, the “% Inhibition Corn” value ([1]; Herbicide No. 1 0.0175 Kg/Ha PPI alone, Table 22) was 0% and the corn injury ([1]; MON-12000 0.14 kg/ha with the OP insecticides at 8.96 kg/ha) was 45-50%. The corn injury ([1]; MON-12000 0.14 kg/ha without insecticide, Examples 20-23) was 0-5%, the “% Inhibition Corn” value ([1]; Table 53, Herbicide No. 1, rate printed as '-', where applied Biocide No. 7 8.96 kg/Ha and antidote 4.48 Kg/Ha, all PPI, observed 13 days after treatment) was 5% and the “% Inhibition Corn” value ([1]; Table 54, Herbicide No. 1, rate printed as '-', where applied Biocide No. 6 8.96 kg/Ha and antidote 4.48 Kg/Ha, all PPI, observed 14 days after PPI initiation) was 5%. For the same molecule, the “% Inhibition Corn” value ([1]; in vivo) was 50% and 45%.

For O=C(OCc1ccccc1)c1sc(Cl)nc1C(F)(F)F [Antidote No. 7, 5-Thiazolecarboxylic acid, 2-chloro-4-(trifluoromethyl)-, (phenylmethyl) ester], the “antidote activity” value [2] was “slightly more active than other thiazoles tested”, the “safening” value [1, 4] was “moderate to high degrees of safening” and the “corn injury” value [3, 5] was “reduced corn injury”. For the same molecule, the “corn injury” value [3, 6] was “significantly reduced”.

COC(=O)COC(c1ccccc1)c1ccccc1 [Antidote No. 12, Acetic acid, (diphenylmethoxy)-, methyl ester] was tested, and the “relieving corn injury, comparison” value [2] was “more active than Antidote No. 28”, the “safening” value [1, 7] was “Effective safening” and the “safening” value [1, 4] was “moderate to high degrees of safening”. For the same molecule, the “corn injury” value [3, 5] was “reduced corn injury”, the “safening of corn injury” value ([3]; COUNTER 15G + sulfonamide herbicides POE, Table 41) was 92-100% and the “safening effects” value ([3]; COUNTER 15G in furrow, POE sulfonylurea herbicides, Tables 38, 39) was “highest and most consistent safening effects”. For the same molecule, the “safener efficacy” value ([3]; COUNTER + PURSUIT/co-herbicide tank mixtures, Example 58) was “most efficacious safener”, the “antidote efficacy” value ([3]; imidazolinone herbicides + COUNTER 15G, Table 40) was “most efficacious antidote” and the “corn injury” value [3, 6] was “significantly reduced”.

With CC1(C)OC(c2ccco2)CN1C(=O)C(Cl)Cl (centres unmarked) [Antidote No. 1, Oxazolidine, 3-(dichloroacetyl)-2,2-dimethyl-5-(2-furanyl)-] the “antidote activity” value [2] was “most active antidote”, the “relieving corn injury, comparison” value [2] was “more active than Antidote No. 28” and the “safening” value [1, 7] was “Effective safening”. The “corn injury” value [3, 5] was “reduced corn injury”, the “safening, comparison” value ([3]; COUNTER/ACCENT, 160 ratio, Example 50) was “more effective than MON-7400” and the “corn injury” value [3, 6] was “significantly reduced”.
